Some test systems named below: SN12C; MOLT-4; NCI-H522; RPMI-8226; ACHN; K562; SW-620; SK-OV-3; A498; SNB-19; HOP-62; RXF 393; Malme-3M; SK-MEL-2; M14; MCF7; T47D; CAKI-1; PC-3.
What all share (assay): NCI anticancer screen, dose series, 48 h

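1) Cells in 96-well plates. 2) Compound, 48 h, 5 concentrations. 3) Linear interpolation between surrounding doses. 4) Unreached endpoint = highest concentration. At the GI50, growth is halved.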 Activity calls are given as the source filed them. Cut-off read from the data, not from the text of the source: active = GI50 up to about 1.1 µM and inactive = higher.

For the molecule `COc1ccc([C@@H]2OC(=O)C3C2C(=O)O[C@H]3c2ccc(OC)c(OC)c2)cc1OC` (stereo not given in full), the GI50 in the experiment with SN12C, in the experiment with MOLT-4, in the experiment with NCI-H522, in the experiment with RPMI-8226, in the experiment with ACHN and in the experiment on K562 was > 100 µM (inactive) in each case. For the same molecule, the GI50 in the experiment on SW-620, in the experiment on SK-OV-3, in the experiment with A498, with SNB-19, with HOP-62 and with RXF 393 was > 100 µM (inactive) each time. In addition, the GI50 in the experiment with Malme-3M, in the experiment on SK-MEL-2 and in the experiment on M14 was > 100 µM (inactive) in each case.
On to `CN(C)C(=S)SCC(=O)Nc1ccccc1`, for which the GI50 in the experiment with SN12C was > 100 µM (inactive); in the experiment with MOLT-4, > 100 µM (inactive); with NCI-H522 it was 57.9 µM (inactive); in the experiment on RPMI-8226, 94.2 µM (inactive); with MCF7 it was > 100 µM (inactive); with ACHN it was > 100 µM (inactive). Also, the GI50 in the experiment on K562, in the experiment with SW-620, in the experiment with SK-OV-3, with A498, in the experiment with HOP-62 and in the experiment on RXF 393 was > 100 µM (inactive) in each case. Moreover, the GI50 in the experiment with Malme-3M, with T47D, with SK-MEL-2, in the experiment with CAKI-1 and with M14 was > 100 µM (inactive) in each case.
For `c1ccc2c(c1)sc1c3cnccc3ccc21`, the GI50 with SN12C was > 100 µM (inactive); in the experiment with MOLT-4, 19.5 µM (inactive); with NCI-H522, > 100 µM (inactive); with RPMI-8226, 0.0697 µM (active); in the experiment on MCF7, 24.1 µM (inactive); in the experiment with ACHN, 90.4 µM (inactive). Also, the GI50 was > 100 µM (inactive) in the experiment on K562; 76.4 µM (inactive) in the experiment on SW-620; > 100 µM (inactive) with SK-OV-3; > 100 µM (inactive) in the experiment with A498; > 100 µM (inactive) with SNB-19; > 100 µM (inactive) in the experiment with HOP-62. Besides, the GI50 in the experiment on Malme-3M was 66.8 µM (inactive); in the experiment on T47D, > 100 µM (inactive); in the experiment with SK-MEL-2, > 100 µM (inactive); with CAKI-1, 43.3 µM (inactive); in the experiment with M14, > 100 µM (inactive).
Regarding `C=C1C(=O)[C@]23[C@H](O)[C@H]1CC[C@H]2[C@@]12CO[C@@]3(O)C[C@@H]1C(C)(C)CC[C@@H]2O` [MEGATHYRIN A], the GI50 was 7.85 µM (inactive) in the experiment on SN12C; 7.11 µM (inactive) with MOLT-4; 3.63 µM (inactive) in the experiment with NCI-H522; 9.2 µM (inactive) in the experiment on PC-3; 7.4 µM (inactive) with RPMI-8226; 6.18 µM (inactive) in the experiment with MCF7. Besides, the GI50 with ACHN was 4.84 µM (inactive); in the experiment on K562, 7.41 µM (inactive); in the experiment on SW-620, 5.5 µM (inactive); in the experiment on A498, 7.45 µM (inactive); with SNB-19, 21.2 µM (inactive); in the experiment with HOP-62, > 25 µM (inactive). The GI50 was 4.03 µM (inactive) in the experiment on RXF 393, 6.71 µM (inactive) in the experiment with Malme-3M and 8.47 µM (inactive) in the experiment on CAKI-1.
Regarding `COc1ccc(OC)c(N2C(=O)CSC2c2cc(OC)c(OC)c(OC)c2)c1` (stereo not given), the GI50 was > 100 µM (inactive) with SN12C; > 100 µM (inactive) with MOLT-4; 40.6 µM (inactive) in the experiment on NCI-H522; > 100 µM (inactive) in the experiment with PC-3; > 100 µM (inactive) in the experiment with RPMI-8226; 71.1 µM (inactive) in the experiment on MCF7. In addition, the GI50 in the experiment on ACHN was > 100 µM (inactive); in the experiment with K562, 83.8 µM (inactive); with SW-620, > 100 µM (inactive); in the experiment on SK-OV-3 it was > 100 µM (inactive); with A498 it was > 100 µM (inactive); with SNB-19 it was > 100 µM (inactive). In addition, the GI50 in the experiment with Malme-3M, in the experiment with SK-MEL-2, in the experiment with CAKI-1 and in the experiment on M14 was > 100 µM (inactive) throughout.
